Experimental data published in US6057153A, “Stabilized external guide sequences” (Yale University, priority 1997, dated 2000).
Entries after “also recorded” stand apart in the source; their conditions may differ.

Legend:
2.1 kb HBV RNA = experiment: RNAse P cleavage of large target RNA; type: biochemical; conditions: 250 nM EGS, 30 minutes at 37° C.
Procedure: To test cleavage with a longer target RNA molecules, different reaction conditions were used. Reactions in a total volume of 10 μl contained 40 mM Tris-HCl (pH 7.4), 10 mM MgCl2, 1 mM spermidine 10 mM dithiothreitol, 0.05 μg/μl nuclease-free bovine serum albumin, 0.01% (v/v) Triton-X100™, 0.8 Units/μl RNASIN, 0.2 mM ATP, 0.2 mM GTP, 0.2 mM UTP, 0.2 mM CTP, 0.1 μCi/μl [a^32 P] CTP, 2 mM m^7 G(5')pppG, 0.06 μg/μl yeast RNA, 25 mM KCl, 3 Units T7 RNA polymerase, 250 nM EGS, 1 μl of human RNAse P and 3 ng/μl linearized plasmid. Reactions were initiated by the addition of linearized plasmid and incubated for 30 minutes at 37° C. Reactions were terminated by the addition of 10 μl of 80% formaemide, 10 mM EDTA, 0.1% bromphenol blue. After heating for 2 minutes at 90° C., samples were electrophoresed for 2 hours at 48 watts on a 5% denaturing polyacrylamide gel. After vacuum drying for 1 hour at 60° C., the gel was analyzed by phosphoimaging.
Cleavage of Large Target RNA: Plasmid pAYW2.1, containing the sequence that encodes the 2.1 kb RNA of the AYW strain of HBV, was linearized by digestion with Not I, and then transcribed by T7 RNA polymerase in the presence of [α^32 P]CTP. Labeled transcripts were incubated for 30 minutes at 37° C. with RNase P in the presence of various EGS molecules. Reaction products were subjected to denaturing polyacrylamide gel electrophoresis, and analyzed by phosphoimaging. EGS-mediated cleavage at the targeted site of the 2.1 kb transcript produces cleavage products that are approximately 1.7 and 0.4 kb in length.

[1] = Nuclease resistance studies in 50% human serum; type: in vitro ADME; conditions: 37° C.
Procedure: Nuclease resistance studies--100 μl of EGS oligonucleotides (5 μM), containing a trace of 5'-end-labeled oligomers, were incubated at 37° C. for different time periods (0-24 h) with 50% human serum (Sigma, S-7023). 20 μl aliquots were diluted to 100 μl with RNase-free water, phenol/chlorform extracted, and ethanol precipitated. The residue was resuspended in 10 μl of TE and 10 μl of 2× gel loading buffer containing 98% formamide, 10 mM1 EDTA and 0.1% bromophenol blue. The mixture was heated to 85° C. for 1 min, quickly cooled on ice and frozen at -20° C. prior to electrophoresis on 15% polyacrylamide/8 M urea gels. Gels were subsequently scanned on a Molecular Dynamics PHOSPHORIMAGER™, and the stability profile for each, oligomer was estimated from the ratio of the remaining intact materials versus all radio-labeled materials (intact oligomers plus degradation products). Stability studies of non radio-labeled EGS oligomers using capillary gel electrophoresis were also carried out according to the method of Leeds et al. (15).

Substrate RNA (SUB-156) = experiment: RNase P-mediated cleavage assay, single turnover conditions; type: biochemical, hepatitis B virus (HBV); conditions: 200 nM EGS, 20 nM substrate, saturating RNase P, 60 min
Procedure: RNase P-mediated cleavage assay--Human RNase P was purified from HeLa cells according to the published procedures (14). Substrate RNA (SUB-156, FIG. 24) was 5'-end labeled using T4 polynucleotide kinase and [γ-^32P]ATP. The labeling mixture was then heated to 85° C. for 1 min, diluted with RNase-free water, and purified by a MICROSPIN™ G-25 column (Pharmacia) according to the manufacturer's instructions. Cleavage reactions were conducted in a reaction buffer containing 50 mM Tris-HCl (pH 7.4), 25 mM KCl, 10 mM MgCl2 and 0.1 mM EDTA. EGS oligomers and ^32 p-5'-end-labeled RNA substrate were heated in the reaction buffer without MgCl2 to 85° C. for 1 min and then slowly cooled to room temperature. The cleavage reaction was initiated by adding 2 μl of 100 mM MgCl2 and 3 μl of RNase P (enzyme activity for this preparation: cleavage of 0.035 pmol of tRNA^Tyr precursor min^-1 μl^-1). The final reaction volume was 20 μl and the reaction was incubated at 37° C. for 60 min. […] For each sample, cleavage reactions were performed in duplicates and the average values were used. To ensure reproducibility, cleavage assays for each EGS were also repeated in two separate experiments. The all-RNA EGS-159 was used as the reference sample and its cleavage values were counted as 100%. Cleavage percentages of all other EGSs were normalized against EGS-159 (Rel. Cleavage %) except in FIG. 30 and FIG. 31 where absolute cleavage percentages (Abs. Cleavage %) were plotted.
For EGS-single turnover conditions, the final concentrations were 200 nM for EGS and 20(nM for the RNA substrate. For EGS-multiple turnover conditions, the final concentrations were 200 nM for the RNA substrate and 40 nM for EGS. When determination of the time-course was required, the reaction volume was increased to 40 μl. Aliquots of 5-8 μl were removed from the reaction mixture at different time points (e.g. 1, 5, 15, 30 and 60 min), quenched in formamide loading buffer, and loaded onto 15% polyacrylamide/8 M urea gels. Quantitation of the cleavage product and the remaining RNA substrate was achieved using a Molecular Dynamics PHOSPHORIMAGER™.
General considerations--To select lead nuclease-resistant oligonucleotide prototypes as external guide sequences among many possible modifications, a reliable yet rapid in vitro cleavage assay for routine screening was used. Human RNase P, a ribonucleoprotein, is composed of a 340-nt H1 RNA component and one or more proteins (for recent review, see Ref. 16). A 3-step screening strategy was devised: 1) All analogues once synthesized were tested by a fast qualitative cleavage assay under single turnover conditions with 10-fold excess of EGS over target RNA substrate for 60 min. […] This was the best cleavage condition used in this study. Any analogue with a reasonable activity (e.g. more than 5% cleavage) would not be missed, under these circumstances, due to the high detection sensitivity provided by PHOSPHORIMAGER™. 2) Promising analogues were then assayed for stability in 50% human serum.

[2] = tested on: short substrate (SEQ ID NO. 1) derived from the full-length pre-genomic HBV RNA; experiment: RNAse P cleavage assay, short substrate; type: biochemical; conditions: short substrate, EGS 200 nM, 37° C., 1 hour
Procedure: RNAse P Cleavage Assays: Cleavage reactions were carried out generally according to the procedure described by Yuan et al., Proc. Natl. Acad. Sci., USA, 89:8006-8010, (1992), which is hereby incorporated by reference. Briefly, short substrate reactions were made up to a total volume of 31μ in 50 mM Tris-HCl pH 7.4, 10 mM MgCl2, 25 mM KCl, 0.1 mM EDTA, […] at 37° C. for 1 hour. After incubation, the reaction solution was mixed with loading buffer (98% formamide, 10 mM EDTA, 0.025% bromophenol blue). The cleaved substrate was separated from the uncleaved by electrophoresis on a 15% acrylamide gel containing 7 M urea. The bands were quantified on a Molecular Dynamics PHOSPHORIMAGER™.
The bands corresponding to the precursor RNA substrate and the resulting two cleavage products were counted from the dried gel using a BETASCOPE™ gel analyzer (Betagen).
RNAse P was purified by DEAE SEPHAROSE™ chromatography and glycerol density gradient centrifugation essentially as described by Bartkiewicz et al., Genes Dev. 3:488-499 (1989), which is hereby incorporated by reference.
The percentage of precursor RNA substrate remaining in either assay was plotted as function of the EGS concentration and the catalytic efficiency expressed as kcat /Km (where kcat is the rate constant of cleavage and Km is the Michaelis constant), the second order rate constant for the reaction of free EGS and substrate. Following the methods of Heidenreich and Eckstein (J. Biol. Chem., 267:1904-1909 (1992), the efficiency of the cleavage reaction, kcat /Km), was determined using the formula
The EGS constructs described in Example 2 were assayed using the RNAse P cleavage assays described in Example 1 to determine the efficiency of the cleavage reaction. FIG. 1 depicts the model system using a short substrate which was used to evaluate the ability of modified EGS molecules in inducing RNase P-mediated target cleavage. The sequence of the short substrate (SEQ ID NO. 1) was derived from the full-length pre-genomic HBV RNA.

| Substance | RNase P-mediated cleavage activity compared to the all-RNA control (Substrate RNA (SUB-156)) | further results |
| --- | --- | --- |
| EGS H62: all-RNA EGS, SEQ ID NO. 3, prepared by T7 RNA polymerase transcription (guide CGAUGAAGGUUCGAAUCCUUCCCAGGAC; unmodified RNA) | – | RNase P-mediated cleavage of 2.1 kb HBV RNA (2.1 kb HBV RNA): Complete cleavage |
| EGS-364: EGS-356 with disrupted T-stem, SEQ ID NO. 34 (guide AGAUGAUACACUGUUCGAAUGGUACACGCCGCN; chemistry not given here) | – | stability in 50% human serum ([1]; experiment of 2 h): did not change the results |
| EGS-380: C56 in the T-loop substituted with rA, SEQ ID NO. 40 (guide AGAUGAUAGAAGGUUAGAAUCCUUCACGCCGC; Riboadenosine at tRNA position 56 of T-loop, rest of chemistry not given here) | effectively substituted | – |
| EGS-381: C56 in the T-loop substituted with rG, SEQ ID NO. 41 (guide AGAUGAUAGAAGGUUGGAAUCCUUCACGCCGC; Riboguanosine at tRNA position 56 of T-loop, rest of chemistry not given here) | effectively substituted | – |
| EGS-399: U54 replaced with riboadenosine, SEQ ID NO. 45 (AGAUGAUAGAAGGAUAGAAUCCUUCACGCCGC; guide RNA; Riboadenosine at tRNA position 54, rest of chemistry not given here) | promising | fraction degraded in 50% human serum ([1]; 24 h): 16% |
| EGS-400: no RNA residues, remaining riboadenosines replaced by deoxynucleotides, SEQ ID NO. 47 (AGAUGAUAGAAGGUUAGAAUCCUUCACGCCGC; guide RNA; No RNA residues, remaining riboadenosines replaced by deoxynucleotides, other modifications not given here) | Significant reduction in activity | – |
| EGS-404: no RNA residues, remaining riboadenosines replaced by deoxynucleotides, SEQ ID NO. 48 (AGAUGAUAGAAGGAUAGAAUCCUUCACGCCGC; guide RNA; No RNA residues, remaining riboadenosines replaced by deoxynucleotides, other modifications not given here) | Significant reduction in activity | – |
| EGS-405: no RNA residues, remaining riboadenosines replaced by deoxynucleotides, SEQ ID NO. 49 (AGAUGAUAGAAGGTUAGAAUCCUUCACGCCGC; guide RNA; No RNA residues, remaining riboadenosines replaced by deoxynucleotides, other modifications not given here) | Significant reduction in activity | – |
| EGS-406: no RNA residues, remaining riboadenosines replaced by deoxynucleotides, SEQ ID NO. 50 (AGAUGAUAGAAGGUUAGAAUCCUUCACGCCGC; guide RNA; No RNA residues, remaining riboadenosines replaced by deoxynucleotides, other modifications not given here) | Significant reduction in activity | – |
| INNO-124: SEQ ID NO. 2, 2'-O-methyl arms, variable loop, T stem and first 5'-U of T loop (CGAUACGGAAGGUUCGAAUCCUUCCCAGGAC; 2'-O-methyl modifications, chemistry not fully specified) | – | efficiency of RNase P-mediated target cleavage relative to the wild-type EGS [2]: most pronounced decrease in cleavage efficiency |
| INNO-126: SEQ ID NO. 2, 2'-O-methyl arms, variable loop, T stem and third 5'-C of T loop (CGAUACGGAAGGUUCGAAUCCUUCCCAGGAC; 2'-O-methyl modifications, chemistry not fully specified) | – | efficiency of RNase P-mediated target cleavage relative to the wild-type EGS [2]: most pronounced decrease in cleavage efficiency |
| INNO-149: SEQ ID NO. 3, 2'-O-methyl arms and T stem, phosphorothioate T loop, 3'-amino group (CGAUGAAGGUUCGAAUCCUUCCCAGGAC; 2'-O-methyl, phosphorothioate T loop, 3'-amino, chemistry not fully specified) | – | RNase P-mediated cleavage of 2.1 kb HBV RNA (2.1 kb HBV RNA): capable of inducing RNase P-mediated cleavage; also recorded: mostly cleaved; RNase P-mediated cleavage of 2.1 kb HBV RNA (2.1 kb HBV RNA; listed as analogue 149): more effective than analogue 155 |
